Key:
full-length HAQ STING = molecular target: T1, full-length HAQ STING (Homo sapiens, UniProt Q86WV6, G230A/H232R/R293Q/R71H); assay: 3H-cGAMP filtration binding assay (HAQ STING); conditions: competition with tritiated cGAMP, HAQ STING membrane
T1 construct: AviTag (after GG linker) (C); HRV3C cleavage site (after GS linker) (C); HIS8 (C); made in house; host or cells: Trichoplusia ni (Hi-Five) insect cells infected with baculovirus (virus generated and amplified in Sf21 cells); used as a washed membrane preparation
Excerpt: The ability of compounds to bind STING is quantified by the ability to compete with tritiated cGAMP ligand for human STING receptor membrane using a radioactive filter-binding assay. The binding assay employs STING receptor obtained from Hi-Five cell membranes overexpressing full-length HAQ STING prepared in-house and tritiated cGAMP ligand also purified in-house.
(§1) The ability of compounds to bind STING is quantified by their ability to compete with tritiated cGAMP ligand for human STING receptor membrane using a radioactive filter-binding assay. The binding assay employs STING receptor obtained from Trichoplusia ni cell membranes (T. ni; Expression Systems, cat #94-002F, www.expressionsystems.com) overexpressing full-length HAQ STING and tritiated cGAMP ligand.
The basic HAQ STING filtration assay protocol is as follows:
The compounds were serially titrated by the Hamilton STARPlus CORE in a 96-well plate (Greiner, #651201) using a 1:3 ten-point dose response format. After compound preparation, a 2.2 ug/ml working concentration of STING membrane (SEQ. ID. No. 1) was prepared by diluting concentrated membrane into assay buffer (1×PBS; Invitrogen # SH30028.02) and douncing 7× using a manual tissue homogenizer (Wheaton, #357546). 148 uL of prepared membrane was then manually added to each well of a 96-well deep-well polypropylene plate (Fisher Scientific, #12-566-121). Following membrane addition, 2 uL of either titrated test compound, DMSO control (Sigma #276855), or cold cGAMP control was added to the appropriate wells using a BIOMEK FX. Compound and membrane then preincubated for 60 min at RT to allow compound binding to equilibrate. Following equilibration, 8 nM of [^3H]c-GAMP ligand was prepared by diluting into assay buffer, and 50 uL of this working stock was then manually added to each well of the assay plate. Plates were then incubated at RT for 60 min, and the contents of each assay plate were then filtered through a 96-well GF/B filter plate (PerkinElmer, #6005250) using a TOMTEC MACH III Cell Harvester equipped with 20 mM HEPES buffer (Fisher Scientific, # BP299500). The filter plates were then dried at 55° C. for 30 min using a pressurized oven before 30 uL of ULTIMA GOLD F scintillate was added to each well. Tritium levels for each reaction well were then measured using a PerkinElmer TopCount plate reader.
(§2) After normalization to controls, the percent activity for each compound concentration was calculated by measuring the amount of remaining radioactivity. The plot of percent activity versus the log of compound concentration was fit with a 4-parameter dose response equation to calculate EC50 values.

full-length WT STING = molecular target: T2, full-length WT STING (Homo sapiens, UniProt Q86WV6, H232R); assay: 3H-cGAMP filtration binding assay (WT STING); conditions: for EC50: competition with tritiated cGAMP, WT STING membrane
T2 construct: AviTag (after gg linker) (C); HRV3C cleavage site (after gs linker) (C); HIS8 (C); made in house; host or cells: Trichoplusia ni (Hi-Five) insect cells infected with baculovirus (virus generated and amplified in Sf21 cells); used as a washed membrane preparation
Protocol: as §1, with “WT” for “HAQ”
The basic WT STING filtration assay protocol is as follows:
16 nM of [^3H] c-GAMP ligand was prepared by diluting into assay buffer, and 50 uL of this working stock was manually added to each well of the assay plate. After ligand addition, 2 uL of either titrated test compound, DMSO control (Sigma #276855), or cold cGAMP control was added to the appropriate wells using a BIOMEK FX. The serially titrated compound was prepared on a Hamilton STARPlus CORE in a 96-well plate (Greiner, #651201) using a 1:3 ten-point dose response format. Following compound addition, a 2.2 ug/ml working concentration of STING membrane (SEQ. ID. No. 3) was prepared by diluting concentrated membrane into assay buffer (1×PBS; Invitrogen # SH30028.02) and douncing 7× using a manual tissue homogenizer (Wheaton, #357546). 148 uL of this prepared membrane was then manually added to each well of a 96-well deep-well polypropylene plate (Fisher Scientific, #12-566-121). Compound, ligand, and membrane then incubated for 60 min at RT before the contents of each assay plate were filtered through a 96-well GF/B filter plate (PerkinElmer, #6005250) using a TOMTEC MACH III Cell Harvester equipped with 20 mM HEPES buffer (Fisher Scientific, # BP299500). The filter plates were then dried at 55° C. for 30 min using a pressurized VWR oven before 30 uL of ULTIMA GOLD F scintillate was added to each well. Tritium levels for each reaction well were then measured using a PerkinElmer TopCount plate reader.
as §2

[1] = system: secretion of interferon-beta from THP1 cells; assay: IFN-β secretion in THP1 cell culture (5 h); type: cell-based; conditions: Homo sapiens, THP-1, 5 h, 30 uM cGAMP = 100%; for activation at 3 µM: compound at 3 uM, read-out: % Effect relative to 2′3′-cGAMP (@ 3 uM); for activation at 30 µM: compound at 30 μM, read-out: % Effect at 30 μM relative to 2′3′-cGAMP
Protocol: The ability of compounds to stimulate the secretion of interferon-beta from THP1 cells was measured using a human IFN-β AlphaLISA kit (Perkin Elmer, Cat. No. AL265F). The basic protocol is as follows:
A Labcyte Echo 550 acoustic dispenser was used to transfer 120 nL of compound dissolved in DMSO into the wells of an empty, sterile 384-well microplate, (Corning, Cat. No. 3712). THP1 cells (American Type Culture Collection, Cat. No. TIB202) previously frozen in Recovery Medium (Life Technologies, Cat. No. 12648-010) were thawed and immediately diluted 10-fold into 37° C. assay medium (RPMI 1640+L-Glutamine & phenol red, Life Technologies, Cat. No. 11875-085; 0.5% heat inactivated fetal bovine serum, Sigma Aldrich, Cat. No. F4135; 1 mM Sodium Pyruvate, Life Technologies, Cat. No. 11360-070; 1× non-essential amino acids; Life Technologies, Cat. No. 11140-050). The cell viability and count was ascertained using a Beckman Coulter V-Cell XR cell counter. The cells suspension was centrifuged at 200×g for 5 min at RT. Cells were resuspended to a density of 0.8×10^6/mL in 37° C. assay medium. Subsequent liquid transfers were performed using either a Matrix electronic multichannel pipette or an Agilent Bravo Automated Liquid Handling Platform.
The assay was started by dispensing 40 μL of the previously prepared cell suspension into the wells of the plate containing compounds. After 5 h incubation at 37° C., 5% CO2 in a humidified atmosphere, the plate of cells and compounds was centrifuged at 200×g for 5 min at RT. From each well, 5 μL of supernatant was transferred into corresponding wells of a white 384-well plate (Perkin Elmer, Cat. No. 6005620). To these supernatant-containing wells was added 10 μL of 5× Anti-Analyte Acceptor beads (50 μg/mL of AlphaLISA HiBlock Buffer) and incubated for 30 min at RT while shaking on an orbital plate shaker. To each well was added 10 μL of 5× Biotinylated Antibody Anti-analyte (5 nM in AlphaLISA HiBlock Buffer) and incubated on an orbital plate shaker for 60 min at RT or overnight at 4° C. To each well was added 25 μL of 2× SA-Donor beads (80 μg/mL in AlphaLISA HiBlock Buffer) and incubated for 30-45 min at RT in the dark while shaking on an orbital plate shaker. The plate was then read on a Perkin Elmer Envision (λex=680 nm, […]). The percent effect of the AlphaLISA signal at each compound concentration was calculated based on 30 uM cGAMP positive controls and 0.3% DMSO negative controls. The plot of percent effect versus the log of compound concentration was fit with a 4-parameter concentration response equation to calculate EC50 values. The test compounds were tested at concentrations 30000, 10000, 3333, 1111, 370.4, 123.4, 41.2, 13.7, 4.6, and 1.5 nM with 0.3% residual DMSO. The control compound, cGAMP was tested at concentrations 100000, 33333, 11111, 3704, 1235, 412, 137, 46, and 15 nM with 0.3% residual DMSO.
Compounds of the disclosure were evaluated for IFN-β secretion in THP1 cell culture as described above. The following table tabulates the biological data for these compounds as percent activation relative to 2′3′-cGAMP at the 30 µM concentration.

T2 sequence (Q86WV6 with tags, fused parts or gaps H232R): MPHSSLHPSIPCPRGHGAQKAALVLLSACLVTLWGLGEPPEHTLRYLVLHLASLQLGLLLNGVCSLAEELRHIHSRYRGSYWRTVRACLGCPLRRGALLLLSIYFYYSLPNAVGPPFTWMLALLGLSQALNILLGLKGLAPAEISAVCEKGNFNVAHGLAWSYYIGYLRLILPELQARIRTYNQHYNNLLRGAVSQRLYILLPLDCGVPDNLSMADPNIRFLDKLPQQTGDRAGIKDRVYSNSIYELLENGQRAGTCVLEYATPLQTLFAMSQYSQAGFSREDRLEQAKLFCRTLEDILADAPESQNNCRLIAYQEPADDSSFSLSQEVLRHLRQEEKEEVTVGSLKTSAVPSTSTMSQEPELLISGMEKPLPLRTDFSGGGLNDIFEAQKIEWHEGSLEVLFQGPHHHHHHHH
T1 sequence (Q86WV6 with tags, fused parts or gaps R71H/G230A/H232R/R293Q): as the sequence (Q86WV6 with tags, fused parts or gaps H232R) above, with R71H, G230A, R293Q counted along it

Structure (SMILES) | EC50 (full-length HAQ STING) [nM] | EC50 (full-length WT STING) [nM] | activation at 3 µM [1] [%] | inhibition at 20 µM (full-length WT STING; at 20,000 nM compound) [%] | activation at 30 µM [1] [%]
COc1cc2sc(C(=O)C[C@H](C)C(=O)O)cc2cc1OCCCOc1c(O)cc2sc(C(=O)C[C@H](C)C(=O)O)cc2c1F [Example 189, (S)-4-(5-(3-((2-((S)-3-carboxybutanoyl)-4-fluoro-6-hydroxybenzo[b]thiophen-5-yl)oxy)propoxy)-6-methoxybenzo[b]thiophen-2-yl)-2-methyl-4-oxobutanoic acid] | 1 | 2 | 111 |  | 
COc1cc2sc(C(=O)CCC#N)cc2cc1CCCc1cc2cc(C(=O)CCC(=O)O)sc2cc1OC [Example 24, 4-(5-(3-(2-(3-cyanopropanoyl)-6-methoxybenzo[b]thiophen-5-yl)propyl)-6-methoxybenzo[b]thiophen-2-yl)-4-oxobutanoic acid] | 17800 |  |  | 39 | 150
COc1cc2sc(C(=O)C[C@H](C)C(=O)O)cc2cc1NCCCOc1cc2cc(C(=O)C[C@H](C)C(=O)O)sc2cc1OC [Example 74, (S)-4-(5-(3-((2-((S)-3-carboxybutanoyl)-6-methoxybenzo[b]thiophen-5-yl)amino)propoxy)-6-methoxybenzo[b]thiophen-2-yl)-2-methyl-4-oxobutanoic acid] | 4 | 6 |  |  | 16
COc1cc2sc(C(=O)CCC(=O)O)cc2cc1CCCc1nc2cc(C(=O)CCC(=O)O)sc2cc1OC [Example 29, 4-(5-(3-(2-(3-carboxypropanoyl)-6-methoxybenzo [b]thiophen-5-yl)propyl)-6-methoxythieno[3,2-b]pyridin-2-yl)-4-oxobutanoic acid] | 8 | 44 |  |  | 107
COc1cc2sc(C(=O)C[C@H](C)C(=O)O)cc2c(Cl)c1OCCCOc1c(OC)cc2sc(C(=O)C[C@H](C)C(=O)O)cc2c1Cl [Example 132, (2S,2′S)-4,4′-(5,5′-(propane-1,3-diylbis(oxy))bis(4-chloro-6-methoxybenzo[b]thiophene-5,2-diyl))bis(2-methyl-4-oxobutanoic acid)] | 3 | 10 |  |  | 131
COc1cc2sc(C(=O)C[C@H](C)C(=O)O)cc2c(F)c1OCCCOc1c(OC)cc2sc(CC[C@H](C)C(=O)O)cc2c1Cl [Example 151, (S)-4-(5-(3-((2-((S)-3-carboxybutyl)-4-chloro-6-methoxybenzo[b]thiophen-5-yl)oxy)propoxy)-4-fluoro-6-methoxybenzo[b]thiophen-2-yl)-2-methyl-4-oxobutanoic acid] | 77 | 1040 | 63 |  | 
COc1cc2sc(C(=O)CCC(=O)O)cc2c(F)c1OCCCOc1cc2sc(C(=O)C[C@H](C)C(=O)O)cc2nc1OC [Example 168, (S)-4-(6-(3-((2-(3-carboxypropanoyl)-4-fluoro-6-methoxybenzo[b]thiophen-5-yl)oxy)propoxy)-5-methoxythieno[3,2-b]pyridin-2-yl)-2-methyl-4-oxobutanoic acid] | 13 | 199 |  |  | 102
COc1cc2sc(C(=O)C[C@H](C)C(=O)O)cc2c(Cl)c1OCCCOc1c(O)cc2sc(C(=O)C[C@H](C)C(=O)O)cc2c1Cl [Example 187, (S)-4-(5-(3-((2-((S)-3-carboxybutanoyl)-4-chloro-6-hydroxybenzo[b]thiophen-5-yl)oxy)propoxy)-4-chloro-6-methoxybenzo[b]thiophen-2-yl)-2-methyl-4-oxobutanoic acid] | 4 | 46 | 128 |  | 
COc1cc2sc(C(=O)C[C@@H](C)C(=O)O)cc2cc1CCCOc1c(OC)cc2sc(C(=O)C[C@@H](C)C(=O)O)cc2c1F [Example 108, (R)-4-(5-(3-((2-((R)-3-carboxybutanoyl)-4-fluoro-6-methoxybenzo[b]thiophen-5-yl)oxy)propyl)-6-methoxybenzo[b]thiophen-2-yl)-2-methyl-4-oxobutanoic acid] | 35 | 244 |  |  | 86
